Read-outs that look alike come from different tables or passages of the source.
Tests used:
[1] = system: B16-F1 mouse melanoma cell line; assay: Cytotoxicity (SRB) assay, B16-F1; format: cell-based
[2] = system: DU 145 human prostate cancer cell line; assay: Cytotoxicity (SRB) assay, DU 145; format: cell-based
Text: (§1) Cells were stained with SRB solution.

[3] = system: LNCaP human prostate cancer cell line; assay: Cytotoxicity (SRB) assay, LNCaP; format: cell-based
Text: as §1

[4] = system: PPC-1 human prostate cancer cell line; assay: Cytotoxicity (SRB) assay, PPC-1; format: cell-based
Text: as §1

[5] = system: A375 human melanoma cell line; assay: Cytotoxicity (SRB) assay, A375; format: cell-based
[6] = system: PC-3 human prostate cancer cell line; assay: cells
Text: as §1

[7] = system: WM-164 human melanoma cell line; assay: Cytotoxicity (SRB) assay, WM-164; format: cell-based
PC-3 xenograft = assay: In vivo PC-3 prostate tumor xenograft; details: PC-3, 50 mg/kg i.p. daily; control 680 mm^3
[8] = system: melanoma and prostate cancer cell lines; assay: Antiproliferative activity summarised over the cell line panel (range or average); format: cell-based
[9] = system: MDA-MB-435/LCCMDR1 multidrug-resistant melanoma cells; assay: Cytotoxicity (SRB) assay, MDA-MB-435/LCCMDR1; format: cell-based; details: for IC50: Homo sapiens
[10] = system: MDA-MB-435 parental nonresistant melanoma cells; assay: Cytotoxicity (SRB) assay, MDA-MB-435; format: cell-based; details: Homo sapiens, Table 14D, read-out: IC50 ± SEM, MDA-MB-435 (converted)
[11] = Mus musculus, B16-F1, Table 12, read-out: IC50 ± SEM, B16-F1 (converted)
[12] = Homo sapiens, A-375, Table 12, read-out: IC50 ± SEM, A375 (converted)
[13] = Homo sapiens, read-out: IC50 ± SEM, PC-3, Table 12
[14] = Homo sapiens, WM164, Table 12, read-out: IC50 ± SEM, WM164 (converted)
[15] = Mus musculus, B16-F1, Table 11, read-out: IC50, B16-F1
[16] = Homo sapiens, DU-145, Table 11, read-out: IC50, Du 145
[17] = Homo sapiens, LNCaP, Table 11, read-out: IC50, LNCaP
[18] = Tables 11-13, read-out: IC50 (average of all seven cell lines)
[19] = Homo sapiens, PPC-1, Table 11, read-out: IC50, PPC-1
[20] = Homo sapiens, A-375, Table 11, read-out: IC50, A375
[21] = Homo sapiens, WM164, Table 11, read-out: IC50, WM164

## COc1cc(C(=O)c2csc(-c3ccccc3)n2)cc(OC)c1OCCN1C(=O)c2ccccc2C1=O [compound 20]
[1]; Mus musculus, B16-F1, Table 6A, read-out: IC50 ± SEM, B16-F1 (converted)
  IC50: 3.1 µM
[2]; Homo sapiens, DU-145, Table 6A, read-out: IC50 ± SEM, DU 145
  IC50: 0.642 µM
[3]; Homo sapiens, LNCaP, Table 6A, read-out: IC50 ± SEM, LNCaP (converted)
  IC50: 1.45 µM
[4]; Homo sapiens, PPC-1, Table 6A, read-out: IC50 ± SEM, PPC-1 (converted)
  IC50: 0.633 µM
[5]; Homo sapiens, A-375, Table 6A, read-out: IC50 ± SEM, A375 (converted)
  IC50: 2.3 µM
[6]; Homo sapiens, read-out: IC50 ± SEM, PC-3, Table 6A
  IC50: > 10 µM
[7]; Homo sapiens, WM164, Table 6A, read-out: IC50 ± SEM, WM164 (converted)
  IC50: 1.3 µM

## COc1cc(C(=O)c2c[nH]c(-c3ccc(OCc4ccccc4)cc3)n2)cc(OC)c1OC [12ja, (2-(4-(benzyloxy)phenyl)-1H-imidazol-4-yl)(3,4,5-trimethoxyphenyl)methanone]
[1]; [11]
  IC50: 10 µM
[5]; [12]
  IC50: 5.2 µM
[6]; [13]
  IC50: 10 µM
[7]; [14]
  IC50: 5.5 µM

## O=C(c1ccc2[nH]ccc2c1)c1csc(-c2cc3ccccc3[nH]2)n1 [compound 21, (2-(1H-indol-2-yl)thiazol-4-yl)(1H-indol-5-yl)methanone]
PC-3 xenograft
  tumor volume at day 21: 331 mm^3

## COc1cc(C(=O)c2c[nH]c(-c3ccc(Cl)cc3)n2)cc(OC)c1OC [12fa, (2-(4-chlorophenyl)-1H-imidazol-4-yl)(3,4,5-trimethoxyphenyl)methanone]
[1]; [11]
  IC50: 0.168 µM
[8]; read-out: IC50 (range over tested cell lines)
  IC50: 0.0079 to 0.11 µM
[5]; [12]
  IC50: 0.043 µM
[6]; [13]
  IC50: 0.035 µM
[7]; [14]
  IC50: 0.026 µM

## O=C(c1ccc(F)cc1)c1cn(S(=O)(=O)c2ccccc2)c(-c2ccc(Cl)cc2)n1 [11fb, (2-(4-chlorophenyl)-1-(phenylsulfonyl)-1H-imidazol-4-yl)(4-fluorophenyl)methanone]
[9]; MDA-MB-435/LCCMDR1, read-out: IC50 MDR melanoma cell line
  IC50: 0.035 µM
[9]; MDA-MB-435/LCCMDR1 vs MDA-MB-435
  resistance index: 0.7

## COc1cc(C(=O)c2c[nH]c(-c3cc(OC)c(OC)c(OC)c3)n2)cc(OC)c1OC [12ea, (3,4,5-trimethoxyphenyl)(2-(3,4,5-trimethoxyphenyl)-1H-imidazol-4-yl)methanone]
[1]; [11]
  IC50: > 10 µM
[8]; text on Tables 11-12, unit as printed, read-out: IC50 (average of all seven cell lines)
  IC50: > 10 µM
[5]; [12]
  IC50: 4.8 µM
[7]; [14]
  IC50: > 10 µM

## O=C(c1ccc(F)cc1)c1c[nH]c(-c2ccc(OCc3ccccc3)cc2)n1 [12jb, (2-(4-(benzyloxy)phenyl)-1H-imidazol-4-yl)(4-fluorophenyl)methanone]
[1]; [11]
  IC50: 0.117 ± 0.016 µM
[8]; 12jb vs para-hydroxy compound 12kb
  increase in activity compared with 12kb: 440 fold
[5]; [12]
  IC50: 0.093 ± 0.008 µM
[6]; [13]
  IC50: 0.079 ± 0.0004 µM
[7]; [14]
  IC50: 0.09 ± 0.012 µM

## O=C(c1ccc(F)cc1)c1c[nH]c(-c2ccc(O)cc2)n1 [12kb]
[1]; Table 12, read-out: IC50 ± SEM, B16-F1 (converted)
  IC50: > 10 µM
[2]; Table 12, read-out: IC50 ± SEM, Du 145
  IC50: > 10 µM
[3]; Table 12, read-out: IC50 ± SEM, LNCaP (converted)
  IC50: 10 µM
[4]; Table 12, read-out: IC50 ± SEM, PPC-1 (converted)
  IC50: > 10 µM
[5]; Table 12, read-out: IC50 ± SEM, A375 (converted)
  IC50: 10 µM
[6]; read-out: IC50 ± SEM, PC-3, Table 12
  IC50: > 10 µM
[7]; Table 12, read-out: IC50 ± SEM, WM164 (converted)
  IC50: > 10 µM

## O=S(=O)(c1ccccc1)n1ccnc1-c1ccc(OCc2ccccc2)cc1 [10j, 2-(4-(benzyloxy)phenyl)-1-(phenylsulfonyl)-1H-imidazole]
[1]; [15]
  IC50: > 10 µM
[2]; [16]
  IC50: > 10 µM
[3]; [17]
  IC50: > 10 µM
[8]; [18]
  IC50: > 10 µM
[4]; [19]
  IC50: > 10 µM
[5]; [20]
  IC50: > 10 µM
[6]; read-out: IC50, PC-3, Table 11
  IC50: > 10 µM
[7]; [21]
  IC50: > 10 µM

## COc1ccc(C(=O)n2ccnc2-c2ccccc2)cc1 [12aba, (4-methoxyphenyl)(2-phenyl-1H-imidazol-1-yl)methanone]
[1]; [15]
  IC50: > 10 µM
[2]; [16]
  IC50: > 10 µM
[3]; [17]
  IC50: > 10 µM
[8]; [18]
  IC50: > 10 µM
[4]; [19]
  IC50: > 10 µM
[5]; [20]
  IC50: > 10 µM
[6]; read-out: IC50, PC-3, Table 11
  IC50: > 10 µM
[7]; [21]
  IC50: > 10 µM

## COc1cc(C(=O)c2c[nH]c(-c3ccc(C(C)C)cc3)n2)cc(OC)c1OC [12v, (2-(4-isopropylphenyl)-1H-imidazol-4-yl)(3,4,5-trimethoxyphenyl)methanone]
[2]; Homo sapiens, DU-145, Table 12, read-out: IC50 ± SEM, Du 145
  IC50: 0.482 µM
[3]; Homo sapiens, LNCaP, Table 12, read-out: IC50 ± SEM, LNCaP (converted)
  IC50: 0.171 µM
[4]; Homo sapiens, PPC-1, Table 12, read-out: IC50 ± SEM, PPC-1 (converted)
  IC50: 0.173 µM
[10]
  IC50: 0.312 µM
[6]; [13]
  IC50: 0.136 µM
[9]; Table 14D, read-out: IC50 ± SEM, MDA-MB-435/LCC-6MDR1 (converted)
  IC50: 0.25 µM
